{"source": "patent EP1131337B1", "about": "(DABUR PHARMA LTD., priority 1998, dated 2000)", "key": {"[1]": {"tested_on": "P388 lymphocytic leukemia cells", "settings": "Choi et al., Planta Medica 1988; cited from earlier work"}, "human melanomas": {"tested_on": "human melanomas", "settings": "athymic mice carrying human melanomas; Nature Medicine 1995, WO 96/29068; cited from earlier work"}, "[2]": {"tested_on": "colon cancer cells (HT29)", "test": "MTT cytotoxicity assay, colon cancer", "type": "cell-based, human", "settings": "72 hours", "protocol": "(§1) After 72 hours, the assay was terminated and percent cyotoxicities calculated."}, "[3]": {"tested_on": "prostate cancer cells (DU 145)", "test": "MTT cytotoxicity assay, prostate cancer", "type": "cell-based, human", "settings": "72 hours", "protocol": "as §1"}, "human leukemia (MOLT-4)": {"tested_on": "human leukemia (MOLT-4)", "test": "MTT cytotoxicity assay, leukemia", "type": "cell-based", "settings": "72 hours", "protocol": "as §1"}, "[4]": {"tested_on": "ovarian cancer cells (PA-1)", "test": "MTT cytotoxicity assay, ovarian cancer", "type": "cell-based, human", "settings": "72 hours", "protocol": "as §1"}, "[5]": {"tested_on": "lung cancer cells (L 132)", "test": "MTT cytotoxicity assay, lung cancer", "type": "cell-based, human", "settings": "72 hours", "protocol": "as §1"}, "lymphoma cells (U937)": {"tested_on": "lymphoma cells (U937)", "test": "MTT cytotoxicity assay, lymphoma", "type": "cell-based, human", "settings": "72 hours", "protocol": "as §1"}, "[6]": {"tested_on": "laryngeal cancer cells(HeP.2)", "test": "MTT cytotoxicity assay, laryngeal cancer", "type": "cell-based, human", "settings": "72 hours", "protocol": "as §1"}}, "data": [{"smiles": "C=C(C)[C@@H]1CC[C@]2(C(=O)O)CC[C@]3(C)[C@H](CC[C@@H]4[C@@]5(C)CC[C@H](OC(C)=O)C(C)(C)[C@@H]5CC[C@]43C)[C@@H]12", "note": "[betulinic acid 3-monoacetate]", "values": [{"measurement": "ED50", "setting": "[1]", "result": 10.5, "unit": "µg/mL"}]}, {"smiles": "C=C(C)[C@@H]1CC[C@]2(C(=O)OC)CC[C@]3(C)[C@H](CC[C@@H]4[C@@]5(C)CC[C@H](O)C(C)(C)[C@@H]5CC[C@]43C)[C@@H]12", "note": "[betulinic acid methyl ester]", "values": [{"measurement": "ED50", "setting": "[1]", "result": 6.8, "unit": "µg/mL"}]}, {"smiles": "C=C(C)[C@@H]1CC[C@]2(C(=O)O)CC[C@]3(C)[C@H](CC[C@@H]4[C@@]5(C)CC[C@H](O)C(C)(C)[C@@H]5CC[C@]43C)[C@@H]12", "note": "[betulinic acid]", "values": [{"measurement": "toxicity", "setting": "human melanomas", "result": "without toxicity"}]}, {"smiles": "CC(C)C1CCC2(C(=O)O)CCC3(C)C(CCC4C5(C)CCC(=NOCc6ccc([N+](=O)[O-])cc6)C(C)(C)C5CCC43C)C12", "note": "(stereo not shown) [compound 1098]", "values": [{"measurement": "ED50 Colon HT-29", "setting": "[2]", "result": 2.6, "unit": "µg/mL"}, {"measurement": "ED50 Prostate DU145", "setting": "[3]", "result": 1.5, "unit": "µg/mL"}, {"measurement": "ED50 Leukemia MOLT-4", "setting": "human leukemia (MOLT-4)", "result": 0.5, "unit": "µg/mL"}, {"measurement": "ED50 Ovary PA-1", "setting": "[4]", "result": 0.9, "unit": "µg/mL"}, {"measurement": "ED50 Lung L132", "setting": "[5]", "result": 1.3, "unit": "µg/mL"}, {"measurement": "ED50 Lymphoma 0 937", "setting": "lymphoma cells (U937)", "result": 0.4, "unit": "µg/mL"}, {"measurement": "ED50 Larynx Hep.2", "setting": "[6]", "result": 1.0, "unit": "µg/mL"}]}]}
